pIC50: −log10 of the molar value.
Legend:
hERG channel = molecular target: T1, hERG channel (Homo sapiens, UniProt Q12809); test: hERG electrophysiology, automated whole-cell patch clamp (Patchliner) in CHO-K1 cells stably expressing hERG; format: cell-based; conditions: 30 nM-100 μM
T1 construct: expressed in transfected cells
Experimental: This assay is used to evaluate the disclosed compounds' inhibition activities against the hERG channel.
CHO-K1 cells stably expressing hERG were grown in Ham's F-12 Medium with glutamine containing 10% heat-inactivated FBS, 1% penicillin/streptomycin, hygromycin (100 μg/ml) and G418 (100 μg/ml). Cells were grown in culture flasks at 37° C. in a 5% CO2-humidified incubator.
The cells were bathed in an extracellular solution containing 140 mM NaCl, 4 mM KCl, 2 mM CaCl2), 1 mM MgCl2, 5 mM Glucose, 10 mM HEPES; pH adjusted to 7.4 with NaOH; 295-305 mOsm. The internal solution contained 50 mM KCl, 10 mM NaCl, 60 mM KF, 20 mM EGTA, 10 mM HEPES; pH adjusted to 7.2 with KOH; 285 mOsm. All compounds were dissolved in DMSO at 30 mM. Compound stock solutions were freshly diluted with external solution to concentrations of 30 nM, 100 nM, 300 nM, 1 μM, 3 μM, 10 μM, 30 μM and 100 μM. The highest content of DMSO (0.3%) was present in 100 μM.
The voltage protocol (see Table B) was designed to simulate voltage changes during a cardiac action potential with a 300 ms depolarization to +20 mV (analogous to the plateau phase of the cardiac action potential), a repolarization for 300 ms to −50 mV (inducing a tail current) and a final step to the holding potential of −80 mV. The pulse frequency was 0.3 Hz. Control (compound-free) and compound pulse trains for each compound concentration applied contained 70 pulses.
Whole-cell current recordings and compound application were enabled by means of an automated patch clamp platform Patchliner (Nanion). EPC 10 patch clamp amplifier (HEKA) along with Patchmaster software (HEKA Elektronik Dr. Schulze GmbH) was used for data acquisition. Data were sampled at 10 kHz without filtering. Increasing compound concentrations were applied consecutively to the same cell without washouts in between.
AUC and PEAK values were obtained with Patchmaster (HEKA Elektronik Dr. Schulze GmbH). To determine IC50 the last single pulse in the pulse train corresponding to a given compound concentration was used. Obtained AUC and PEAK values in the presence of compound were normalized to control values in the absence of compound. Using Origin (OridinLab), IC50 was derived from data fit to Hill equation: Icompound/Icontrol=(100−A)/(1+([compound]/IC50)nH)+A, where IC50 is the concentration at which current inhibition is half-maximal, [compound] is the applied compound concentration, A is the fraction of current that is not blocked and nH is the Hill coefficient.

Kv1.3 potassium channel = molecular target: T2, Kv1.3 potassium channel (Homo sapiens, UniProt P22001); test: Kv1.3 potassium channel blocker activity, automated whole-cell patch clamp (Patchliner) in CHO-K1 cells stably expressing Kv1.3; format: cell-based; conditions: 30 nM-100 μM
T2 construct: expressed in transfected cells
Outline: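 Whole-cell automated patch clamp in CHO-K1 cells, pH 7.4 external/7.2 internal; 100 ms steps from −90 to +40 mV at 0.1 Hz, 20-pulse trains. Cumulative 30 nM–100 μM on one cell, ≤10 s per concentration; last-pulse current normalized to control, IC50 from Hill fit.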

T1 sequence (Q12809 whole entry): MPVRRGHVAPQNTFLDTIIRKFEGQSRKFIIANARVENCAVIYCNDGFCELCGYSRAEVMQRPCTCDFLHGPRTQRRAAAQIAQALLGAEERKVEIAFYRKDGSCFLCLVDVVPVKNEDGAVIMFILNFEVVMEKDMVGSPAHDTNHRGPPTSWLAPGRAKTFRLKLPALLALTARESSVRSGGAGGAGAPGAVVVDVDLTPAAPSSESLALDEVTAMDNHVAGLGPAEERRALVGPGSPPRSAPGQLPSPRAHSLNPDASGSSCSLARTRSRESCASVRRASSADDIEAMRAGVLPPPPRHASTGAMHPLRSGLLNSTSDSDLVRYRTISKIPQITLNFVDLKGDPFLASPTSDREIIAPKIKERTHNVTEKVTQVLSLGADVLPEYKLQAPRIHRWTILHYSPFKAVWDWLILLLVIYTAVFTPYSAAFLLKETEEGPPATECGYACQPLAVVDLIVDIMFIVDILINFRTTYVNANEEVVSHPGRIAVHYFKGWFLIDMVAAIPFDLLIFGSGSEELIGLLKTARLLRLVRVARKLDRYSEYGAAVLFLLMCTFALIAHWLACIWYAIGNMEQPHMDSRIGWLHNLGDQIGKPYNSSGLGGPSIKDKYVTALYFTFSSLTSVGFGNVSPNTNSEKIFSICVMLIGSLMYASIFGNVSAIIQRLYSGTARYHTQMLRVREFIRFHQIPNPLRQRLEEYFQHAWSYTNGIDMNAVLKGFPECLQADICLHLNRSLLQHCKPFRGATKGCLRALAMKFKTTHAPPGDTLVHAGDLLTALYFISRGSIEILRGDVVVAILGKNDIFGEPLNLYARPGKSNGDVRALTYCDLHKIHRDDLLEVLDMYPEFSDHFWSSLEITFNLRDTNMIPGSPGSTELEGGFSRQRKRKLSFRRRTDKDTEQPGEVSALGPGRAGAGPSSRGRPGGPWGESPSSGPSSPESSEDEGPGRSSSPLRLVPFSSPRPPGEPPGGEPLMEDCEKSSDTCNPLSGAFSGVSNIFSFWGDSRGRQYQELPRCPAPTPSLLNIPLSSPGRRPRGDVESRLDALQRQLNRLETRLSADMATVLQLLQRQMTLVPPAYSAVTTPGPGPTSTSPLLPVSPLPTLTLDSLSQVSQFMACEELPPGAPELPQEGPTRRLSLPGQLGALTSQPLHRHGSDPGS
T2 sequence (P22001 whole entry): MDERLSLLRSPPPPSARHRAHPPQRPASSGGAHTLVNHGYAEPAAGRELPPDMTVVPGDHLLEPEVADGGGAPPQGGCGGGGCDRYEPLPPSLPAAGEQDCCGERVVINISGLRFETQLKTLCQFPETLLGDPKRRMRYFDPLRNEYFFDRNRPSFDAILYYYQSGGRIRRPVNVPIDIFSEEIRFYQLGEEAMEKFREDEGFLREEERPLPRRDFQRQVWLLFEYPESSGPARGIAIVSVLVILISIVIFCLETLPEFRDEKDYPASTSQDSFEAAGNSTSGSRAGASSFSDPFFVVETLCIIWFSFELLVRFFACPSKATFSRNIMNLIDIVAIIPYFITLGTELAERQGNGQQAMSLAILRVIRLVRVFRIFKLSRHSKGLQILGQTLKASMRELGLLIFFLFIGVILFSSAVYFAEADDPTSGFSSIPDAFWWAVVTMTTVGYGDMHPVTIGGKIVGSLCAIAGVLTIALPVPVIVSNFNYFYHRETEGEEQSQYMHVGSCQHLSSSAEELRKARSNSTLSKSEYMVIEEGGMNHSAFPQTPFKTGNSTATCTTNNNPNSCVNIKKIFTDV

SMILES	pIC50 (Kv1.3 potassium channel)	pIC50 (hERG channel)
O=C(c1cn[nH]c1)N1CC[C@]2(C1)C(=O)Nc1cc(Cl)c(Cl)cc12 [Compound 35, (S)-5,6-dichloro-1′-(1H-pyrazole-4-carbonyl)spiro[indoline-3,3′-pyrrolidin]-2-one]	> 6.00	< 4.00
Nc1cc(C(=O)N2CC[C@]3(C2)C(=O)Nc2cc(Cl)c(Cl)cc23)ccn1 [Compound 42, (S)-1′-(2-aminoisonicotinoyl)-5,6-dichlorospiro[indoline-3,3′-pyrrolidin]-2-one]	> 6.52	< 5.00
O=C(N1CC[C@]2(C1)C(=O)Nc1cc(Cl)c(Cl)cc12)[C@]1(F)CCCNC1 [Compound 49, (S)-5,6-dichloro-1′-((S)-3-fluoropiperidine-3-carbonyl)spiro[indoline-3,3′-pyrrolidin]-2-one]	> 6.52	< 5.52
O=C(c1cc[nH]n1)N1CC[C@]2(C1)C(=O)Nc1cc(Cl)c(Cl)cc12 [Compound 53, (S)-5,6-dichloro-1′-(1H-pyrazole-3-carbonyl)spiro[indoline-3,3′-pyrrolidin]-2-one]	> 5.52	< 5.00
O=C(CCCO)N1CC[C@]2(C1)C(=O)Nc1cc(Cl)c(Cl)cc12 [Compound 56, (S)-5,6-dichloro-1′-(4-hydroxybutanoyl)spiro[indoline-3,3′-pyrrolidin]-2-one]	> 5.52	< 4.00
O=C(C[C@@H]1CCNC1)N1CC[C@]2(C1)C(=O)Nc1cc(Cl)c(Cl)cc12 [Compound 60, (S)-5,6-dichloro-1′-(2-((S)-pyrrolidin-3-yl)acetyl)spiro[indoline-3,3′-pyrrolidin]-2-one]	> 6.52	< 4.00
O=C(C[C@H]1CCNC1)N1CC[C@]2(C1)C(=O)Nc1cc(Cl)c(Cl)cc12 [Compound 62, (S)-5,6-dichloro-1′-(2-((R)-pyrrolidin-3-yl)acetyl)spiro[indoline-3,3′-pyrrolidin]-2-one]	> 6.52	< 4.00
O=C(c1ccnc(CO)c1)N1CC[C@]2(C1)C(=O)Nc1cc(Cl)c(Cl)cc12 [Compound 67, (S)-5,6-dichloro-1′-(2-(hydroxymethyl)isonicotinoyl)spiro[indoline-3,3′-pyrrolidin]-2-one]	> 6.00	< 4.00
Cc1[nH]ncc1C(=O)N1CC[C@]2(C1)C(=O)Nc1cc(Cl)c(Cl)cc12 [Compound 71, (S)-5,6-dichloro-1′-(5-methyl-1H-pyrazol-4-carbonyl)spiro[indoline-3,3′-pyrrolidin]-2-one]	> 6.00	< 4.52
Cc1cc2c(cc1Cl)[C@]1(CCN(C(=O)CO)C1)C(=O)N2 [Compound 120, (S)-5-chloro-1′-(2-hydroxyacetyl)-6-methylspiro[indoline-3,3′-pyrrolidin]-2-one]	> 5.52	< 4.00
O=C(CO)N1CC[C@]2(C1)C(=O)Nc1c2cc(Cl)c(Cl)c1Cl [Compound 121, (3S)-5,6,7-trichloro-1′-(2-hydroxyacetyl)-1H-spiro[indole-3,3′-pyrrolidin]-2-one]	> 6.52	< 5.00
O=C(CO)N1CC[C@]2(C1)C(=O)Nc1c2cc(Cl)c(Cl)c1F [Compound 128, (S)-5,6-dichloro-7-fluoro-1′-(2-hydroxyacetyl)spiro[indoline-3,3′-pyrrolidin]-2-one]	> 6.52	< 4.00
Cc1c(Cl)c(Cl)cc2c1NC(=O)[C@@]21CCN(C(=O)CO)C1 [Compound 129, (3S)-5,6-dichloro-1′-(2-hydroxyacetyl)-7-methyl-1H-spiro[indole-3,3′-pyrrolidin]-2-one]	> 6.52	< 4.00

Second part, led by results:

pIC50 (Kv1.3 potassium channel)	SMILES	pIC50 (hERG channel)
> 6.00	O=C1Nc2cc(Cl)c(Cl)cc2[C@]12CCN(C(=O)[C@H]1CC[C@H](O)CC1)C2 [Compound 52, (S)-5,6-dichloro-1′-((1r,4S)-4-hydroxycyclohexane-1-carbonyl)Spiro[indoline-3,3′-pyrrolidin]-2-one]	< 4.52
> 6.00	O=C1Nc2cc(Cl)c(Cl)cc2[C@]12CCN(C(=O)[C@H]1C[C@](O)(CO)C1)C2 [Compound 93, (3S)-5,6-dichloro-1′-[(1r,3r)-3-hydroxy-3-(hydroxymethyl)cyclobutanecarbonyl]-1H-spiro[indole-3,3′-pyrrolidin]-2-one]	< 4.00
> 6.00	O=C1Nc2cc(Cl)c(Cl)cc2[C@]12CCN(C(=O)[C@H]1C[C@@](O)(CO)C1)C2 [Compound 94, (3S)-5,6-dichloro-1′-[(1s,3s)-3-hydroxy-3-(hydroxymethyl)cyclobutanecarbonyl]-1H-spiro[indole-3,3′-pyrrolidin]-2-one]	< 4.00
> 6.52	O=C([C@@H]1C[C@@H](O)[C@@H](O)C1)N1CC[C@]2(C1)C(=O)Nc1cc(Cl)c(Cl)cc12 [Compound 101, (3S)-5,6-dichloro-1′-[(1S,3R,4S)-3,4-dihydroxycyclopentanecarbonyl]-1H-spiro[indole-3,3′-pyrrolidin]-2-one]	< 4.00
> 6.00	O=C([C@H]1C[C@@H](O)[C@@H](O)C1)N1CC[C@]2(C1)C(=O)Nc1cc(Cl)c(Cl)cc12 [Compound 102, (3S)-5,6-dichloro-1′-[(1R,3R,43)-3,4-dihydroxycyclopentanecarbonyl]-1H-spiro[indole-3,3′-pyrrolidin]-2-one]	< 4.00
> 6.00	COC[C@@H]1C[C@H](C(=O)N2CC[C@]3(C2)C(=O)Nc2cc(Cl)c(Cl)cc23)CN1 [Compound 109, (3S)-5,6-dichloro-1′-[(3S,5S)-5-(methoxymethyl)pyrrolidine-3-carbonyl]-1H-spiro[indole-3,3′-pyrrolidin]-2-one]	< 4.52
> 6.52	COC[C@H]1C[C@H](C(=O)N2CC[C@]3(C2)C(=O)Nc2cc(Cl)c(Cl)cc23)CN1 [Compound 112, (S)-5,6-dichloro-1′-((3S,5R)-5-(methoxymethyl)pyrrolidine-3-carbonyl)spiro[indoline-3,3′-pyrrolidin]-2-one]	< 4.00
> 7.00	O=C([C@@H]1CN[C@H](CO)C1)N1CC[C@]2(C1)C(=O)Nc1cc(Cl)c(Cl)cc12 [Compound 113, (3S)-5,6-dichloro-1-[(3S,53)-5-(hydroxymethyl)pyrrolidine-3-carbonyl]-1H-spiro[indole-3,3-pyrrolidin]-2-one]	< 4.00
> 6.52	O=C([C@H]1CN[C@H](CO)C1)N1CC[C@]2(C1)C(=O)Nc1cc(Cl)c(Cl)cc12 [Compound 114, (3S)-5,6-dichloro-1′-[(3R,5S)-5-(hydroxymethyl)pyrrolidine-3-carbonyl]-1H-spiro[indole-3,3′-pyrrolidin]-2-one]	< 4.00
> 7.00	O=C([C@@H]1CN[C@@H](CO)C1)N1CC[C@]2(C1)C(=O)Nc1cc(Cl)c(Cl)cc12 [Compound 115, (S)-5,6-dichloro-1′-((3S,5R)-5-(hydroxymethyl)pyrrolidine-3-carbonyl)spiro[indoline-3,3′-pyrrolidin]-2-one]	< 4.00
> 7.00	O=C([C@H]1CN[C@@H](CO)C1)N1CC[C@]2(C1)C(=O)Nc1cc(Cl)c(Cl)cc12 [Compound 116, (S)-5,6-dichloro-1′-((3R,5R)-5-(hydroxymethyl)pyrrolidine-3-carbonyl)spiro[indoline-3,3′-pyrrolidin]-2-one]	< 4.00
